In patent US20240141356A1, “Driving Axon Regeneration by Activating STAT1 Signaling and cGAS-STING Pathway” (The Hong Kong University of Science and Technology, priority 2022, published 2024):

Assays:
adult DRG neurons = assay: DRG replating assay, phosphatase inhibitor screening; format: cell-based, mouse; conditions: replated adult DRG neurons, inhibitors 100 nM
Experimental: (§1) In some embodiments, in-vitro screening models of axon regeneration are based on DRG electroporation and replating culture. Adult DRGs were cultured and replated according to the protocol described previously (Weng et al., 2018). In certain embodiments, adult mice were euthanized, and L4-L6 DRGs were dissected from both sides. DRGs were dissociated in 0.5% collagenase for 1.5 hours. Then the medium containing collagenase was replaced by Neurobasal A, and DRGs were gently pipetted 20 times for dissociation. For electroporation, dissociated DRG neurons were transfected by Mouse Neuron Nucleofector Kit in Lonza Nucleofector system using program G103. 6 DRGs and 5 μg plasmid were used for each reaction. Neurobasal-A with 10% B27 supplement was used as the culture medium for DRG neurons.
The culture was replated three days after electroporation. The DRG neurons in the primary culture were gently flushed by 20-30 pipetting to be resuspended in the culture medium. […] The lengths of the longest axons in each DRG neuron were quantified by the NeuronJ plugin in ImageJ. […]
For quantification of neurite lengths in DRG culture. […] The lengths of the longest axons in each DRG neuron were quantified by the NeuronJ plugin in ImageJ. For phosphatase screening, 5-10 neurons were quantified for each shRNA. For the compound test, 10-20 cells from each mouse and 3 mice were quantified in each group.

[1] = test system: retinal ganglion cells (RGCs); assay: Optic nerve crush, number of regenerating axons (CTB labeling); format: in vivo, mouse
DRG neurons = assay: Adult DRG neuron primary culture, length of the longest axon (compound test); format: cell-based, mouse; conditions: cGAMP 10 μM; for effect on the growth effect induced by cGAMP: DRG culture, DCPIB 100 nM, CBX 10 μM; for axon elongation / axon growth in DRG culture: WT DRG neurons, DMXAA 10 μM, C-176 1 μM, H-151 1 μM
Experimental: as §1
For quantification of neurite lengths in DRG culture. Cells were fixed and stained with TurboGFP (phosphatase shRNA library screening) or Tuj 1. The lengths of the longest axons in each DRG neuron were quantified by the NeuronJ plugin in ImageJ. For phosphatase screening, 5-10 neurons were quantified for each shRNA. For the compound test, 10-20 cells from each mouse and 3 mice were quantified in each group.

embryonic DRG neurons = assay: Embryonic DRG culture in compartmented chamber, in-vitro axotomy; format: cell-based, mouse; conditions: ADU-S100 10 μM added to the axonal or the soma compartment
Experimental: To culture embryonic DRG in the compartmented chamber, embryonic DRGs were dissected from E13.5 pregnant C57BL/6 mouse embryos in Leibovitz's L-15 medium on ice. Tissues were dissociated in TrypLE for 15 minutes at 37° C. Dissociated neurons were plated in the microfluidic chamber on cleaned glass coverslips pre-coated with poly-D-lysine and laminin in the density of 100000 cells per chamber with 5 μL culture medium supplemented with GlutaMAX (2 mM), B27 (20 ml/l), penicillin-Streptomycin, NGF ([…]) and 5-fluoro-2′-deoxyuridine (10 μM) into the somal compartment. After one hour, 200 μL medium was added into both the somal and axonal compartment. To perform in-vitro axotomy, axons in the axonal chamber were removed by a glass pipette connected to an aspirator. Then, a 150 μL medium was quickly added into the empty compartment. After 2 days in the […], cells were fixed by 4% PFA and then stained by Tuj 1 antibody. The lengths and/or number of longest axons in each chamber were quantified by ImageJ.

IFNγ = assay: Ex-vivo model of sciatic nerve injury, IFNγ immunostaining; parameters: species or system mouse; conditions: injured sciatic nerve segments in DMEM, anisomycin 200 μg/ml, 3-hour incubation
Experimental: For the ex-vivo model of sciatic nerve injury, the nerves were crushed and then cut into about 3 mm to about 5 mm segments. The injured nerve segments were incubated in DMEM supplemented with about 10% FBS and about 1% penicillin/streptomycin. Translation was inhibited by 200 μg/ml anisomycin. After about a 3-hour incubation, nerve segments were fixed by 4% PFA for about 2 hours and then proceeded to the frozen section.
Mice were first perfused by PBS and then 4% PFA for 5 minutes for fixation. Respective tissues were dissected and then post-fixed in 4% PFA for two hours. Fixed tissues were incubated in 30% sucrose overnight and then embedded in an optimum cutting temperature (OCT) compound. Frozen sections were then permeabilized with 0.1% Triton X-100, blocked by 4% normal goat serum for 30 min, and incubated by respective primary antibodies overnight. After PBS washing three times, sections were incubated by secondary antibodies for two hours and washed three times again. Images were taken by Leica SP8 confocal microscope.

p-STAT1 = p-STAT1 in RGCs/retina after optic nerve injury (immunostaining, western blot); format: in vivo, mouse; conditions: for p-STAT1 accumulation in the nuclei of RGCs: WT, IFNγ administration
p-STAT3 = p-STAT3 in RGCs after optic nerve injury (immunostaining); format: in vivo, mouse; conditions: Ptpn2 KO group with IFNγ, 1 dpc
cGAS = cGAS expression in retina/RGCs after optic nerve injury (western blot, immunostaining); format: in vivo, mouse
[2] = test system: retinal ganglion cells (RGCs); conditions: 2 WPI
[3] = Ptpn2 cKO plus IFNγ after optic nerve injury

## CCc1ccc(C(=O)NCCCCC(NC(=O)C(Cc2ccc(C(F)(F)P(=O)(O)O)cc2)NC(=O)C(Cc2ccccc2)NC(=O)COC2CC(C)CCC2C(C)C)C(N)=O)cc1 (stereo not shown) [PTPN2 inhibitor, reference compound]
Adult DRG neurons
  in-vitro screening on inhibitors of mouse phosphatases (axon elongation): identified from the tyrosine phosphatase inhibitor screening
[1]; mouse, in vivo
  axon regeneration after optic nerve crush: elicited modest axon regeneration

## CCCCC1(C2CCCC2)Cc2cc(OCCCC(=O)O)c(Cl)c(Cl)c2C1=O (stereo not shown) [DCPIB]
DRG neurons
  effect on the growth effect induced by cGAMP: inhibit the growth effect induced by cGAMP

## Nc1ncnc2c1ncn2[C@@H]1O[C@@H]2COP(=O)([S-])O[C@@H]3[C@H](O)[C@@H](COP([O-])(=S)O[C@H]2[C@H]1O)O[C@H]3n1cnc2c(N)ncnc21.[Na+].[Na+] (stereo partly shown) [ADU-S100, reference compound]
[1]; mouse, in vivo
  axon regeneration after optic nerve crush: regenerative effect in a dose-dependent manner
Embryonic DRG neurons
  axon elongation after in-vitro axotomy: enhanced axon elongation

## CC1(C)[C@@H](OC(=O)CCC(=O)O)CC[C@]2(C)[C@H]3C(=O)C=C4[C@@H]5C[C@@](C)(C(=O)O)CC[C@]5(C)CC[C@@]4(C)[C@]3(C)CC[C@@H]12 [CBX]
DRG neurons
  effect on the growth effect induced by cGAMP: inhibit the growth effect induced by cGAMP

## Nc1nc2c(ncn2[C@@H]2O[C@@H]3COP(=O)(O)O[C@H]4[C@@H](O)[C@H](n5cnc6c(N)ncnc65)O[C@@H]4COP(=O)(O)O[C@@H]2[C@@H]3O)c(=O)[nH]1 [2′,3′-cGAMP, reference compound]
[1]; mouse, in vivo
  axon regeneration after optic nerve crush: stimulated significant axon regeneration
  cGAMP-induced regeneration: suppressed
  cGAMP-stimulated axon regeneration: almost completely blocked
DRG neurons; Sting deletion (Sting KO mice)
  growth effect of cGAMP on DRG culture: completely abolished
DRG neurons
  axon elongation / axon growth in DRG culture: enhanced the axon elongation

## Cc1ccc2c(=O)c3cccc(CC(=O)O)c3oc2c1C [DMXAA, 5,6-Dimethylxanthenone-4-acetic acid]
DRG neurons
  axon elongation / axon growth in DRG culture: enhanced the axon elongation

## COc1ccc(C[C@H]2NC[C@H](O)[C@H]2OC(C)=O)cc1 [anisomycin]
IFNγ
  reduction of the IFNγ signal: over 50%

## IFNγ: type II interferon, recombinant protein (Prospec)
[1]; Cgas or Sting KO mice with AAV-shRNA-Ptpn2, 0.1 μg/μL IFNγ, 2 weeks after injury
  optic nerve regeneration by IFNγ stimulation: almost completely blocked
[1]; Pten/Socs3/Ptpn2 triple KO with AAV-CNTF, IFNγ at time of injury, four weeks
  axons found at the optic chiasm, vs Pten/Socs3 mutant plus vehicle: about 3 fold
[1]; Ptpn2 KO mice, protein injected into the eye at time of optic nerve crush, two weeks, IFNγ 0.1 μg/μL, leptin 2, insulin 2, EGF 1, bNGF 1 μg/μL
  axon regeneration, exogenous ligand screen: significantly boosted axon regeneration
[1]; Ptpn2 cKO mice, intravitreal IFNγ immediately after optic nerve injury (repeat with more controls)
  axon regeneration, IFNγ plus Ptpn2 KO: elicited robust regeneration
[1]; WT mice, intravitreal IFNγ immediately after optic nerve injury
  axon regrowth, IFNγ alone: induced modest regrowth
[1]; mouse, in vivo
  axon regeneration, triple KO plus IFNγ vs Pten/Socs3 mutant plus vehicle: very significant increase in axon regeneration
p-STAT1; Ptpn2 KO group with IFNγ
  p-STAT1 in RGCs: enhanced up to 5 dpc
p-STAT1; [3]
  p-STAT1 in retina lysates by western blotting: most elevated among all groups
p-STAT1; 1 dpc
  p-STAT1 accumulation in the nuclei of RGCs: induced p-STAT1 accumulation
p-STAT1; 3 dpc
  p-STAT1 accumulation in the nuclei of RGCs: not at 3 dpc
p-STAT3
  phosphorylated STAT3 (p-STAT3) in RGCs: also activated
cGAS; Ptpn2 cKO in addition to IFNγ, 2 days after injury
  cGAS in RGCs by immunostaining: upregulated
cGAS; [3]
  cGAS in retina by western blotting: detectable only in mouse retinas with Ptpn2 cKO plus IFNγ
[2]; WT or Ptpn2 cKO with PBS or IFNγ
  RGC survival rates: comparable among the four groups
[2]; WT, Cgas, Sting or Mavs KO mice with AAV-shRNA-Ptpn2 and IFNγ
  RGC survival: comparable among all groups
